Key:
SYK kinase = target: T1, SYK kinase (Homo sapiens, UniProt P43405); experiment: SYK Assay (OMNIA Kinase Assay, SOX peptide fluorescence); format: biochemical; conditions: 1 mM ATP, 10 μM Omnia Peptide Substrate Tyr 7, 30° C., readings for 30 minutes; read-out: SYK Activities: IC50
T1 construct: purchased Invitrogen, Carlsbad
Procedure, shortened: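 The reaction was run at 30 °C with 1 mM ATP, 0.2 mM DTT and 10 μM Omnia Tyr 7 peptide (final) and started by adding SYK. Chelation-enhanced SOX fluorescence (ex 360/em 485 nm) was read every 30 s for 30 min. Reaction velocity versus inhibitor concentration was fitted sigmoidally for IC50.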

LRRK2 = LRRK2 (Homo sapiens, UniProt Q5S007); experiment: LRRK2-LRRK2 G2019S-Assay (LanthaScreen Eu Kinase Binding Assay); conditions: 5 nM LRRK2, 10 nM tracer 236, 2 nM EU-Anti-GST antibody, 1 h at RT; read-out: LRRK2 Activities: IC50
Procedure, shortened: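 In a TR-FRET tracer displacement assay, LRRK2 or its mutants at 5 nM were mixed with 2 nM Eu-anti-GST antibody and 10 nM tracer 236 in kinase buffer A for 1 h at RT. The 665/615 nm emission ratio was plotted against inhibitor concentration, and IC50 came from a variable-slope sigmoidal fit.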

Sequence of LRRK2 (Q5S007 970-2527 limits assumed): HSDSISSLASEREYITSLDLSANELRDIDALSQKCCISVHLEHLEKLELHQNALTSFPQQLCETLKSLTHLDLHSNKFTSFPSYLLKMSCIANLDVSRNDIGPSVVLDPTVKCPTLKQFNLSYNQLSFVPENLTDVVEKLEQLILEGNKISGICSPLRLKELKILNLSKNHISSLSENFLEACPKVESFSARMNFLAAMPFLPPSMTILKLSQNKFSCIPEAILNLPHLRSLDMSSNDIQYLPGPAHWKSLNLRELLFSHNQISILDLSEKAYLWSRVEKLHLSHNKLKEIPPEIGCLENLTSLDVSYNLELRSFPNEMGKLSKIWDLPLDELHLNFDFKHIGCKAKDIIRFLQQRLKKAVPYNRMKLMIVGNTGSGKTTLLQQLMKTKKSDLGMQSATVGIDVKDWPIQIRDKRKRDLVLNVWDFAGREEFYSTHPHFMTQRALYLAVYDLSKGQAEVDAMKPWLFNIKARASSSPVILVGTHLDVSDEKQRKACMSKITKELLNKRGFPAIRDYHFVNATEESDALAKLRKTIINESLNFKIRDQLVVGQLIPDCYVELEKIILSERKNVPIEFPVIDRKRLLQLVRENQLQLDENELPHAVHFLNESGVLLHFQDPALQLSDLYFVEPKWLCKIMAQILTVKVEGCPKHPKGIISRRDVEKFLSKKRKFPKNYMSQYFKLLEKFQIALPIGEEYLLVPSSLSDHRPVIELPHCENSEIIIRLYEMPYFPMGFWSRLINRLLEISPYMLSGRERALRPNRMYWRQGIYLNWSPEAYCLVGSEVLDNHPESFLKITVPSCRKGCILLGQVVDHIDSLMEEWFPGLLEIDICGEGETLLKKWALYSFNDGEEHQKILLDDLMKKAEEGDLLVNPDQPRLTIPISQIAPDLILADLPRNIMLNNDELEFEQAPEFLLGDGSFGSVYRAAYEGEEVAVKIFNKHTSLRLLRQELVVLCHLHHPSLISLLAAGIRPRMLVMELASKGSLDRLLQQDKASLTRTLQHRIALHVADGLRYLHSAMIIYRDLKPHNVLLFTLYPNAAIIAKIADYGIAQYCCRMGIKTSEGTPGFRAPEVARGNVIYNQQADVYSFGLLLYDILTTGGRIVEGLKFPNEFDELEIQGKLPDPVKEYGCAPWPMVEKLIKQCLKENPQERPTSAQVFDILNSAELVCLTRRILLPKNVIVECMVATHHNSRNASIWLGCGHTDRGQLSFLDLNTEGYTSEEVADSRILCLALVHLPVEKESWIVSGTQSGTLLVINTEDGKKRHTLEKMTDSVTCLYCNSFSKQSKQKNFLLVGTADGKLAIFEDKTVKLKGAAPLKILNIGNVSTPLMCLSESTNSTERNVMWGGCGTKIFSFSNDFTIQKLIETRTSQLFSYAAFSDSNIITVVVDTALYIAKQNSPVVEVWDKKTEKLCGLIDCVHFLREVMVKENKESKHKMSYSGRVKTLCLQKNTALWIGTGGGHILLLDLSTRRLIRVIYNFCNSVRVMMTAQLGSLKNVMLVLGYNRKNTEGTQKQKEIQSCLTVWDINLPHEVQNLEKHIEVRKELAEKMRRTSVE

SMILES: CS(=O)(=O)c1ccc2nc(Nc3ccc4c(c3)NC(=O)CS4)c3n[nH]cc3c2c1 [Example 344, 6-((8-(methylsulfonyl)-2H-pyrazolo[3,4-c]quinolin-4-yl)amino)-2H-benzo[b][1,4]thiazin-3(4H)-one]
- IC50 (SYK kinase): < 10 nM
- IC50 (LRRK2): 10 to 100 nM

SMILES: Brc1ccc2c(c1)nc(Nc1cnn(C3CCOCC3)c1)c1n[nH]cc12 [Example 348, 7-bromo-N-(1-(tetrahydro-2H-pyran-4-yl)-1H-pyrazol-4-yl)-2H-pyrazolo[3,4-c]quinolin-4-amine]
- IC50 (SYK kinase): 10 to 100 nM
- IC50 (LRRK2): < 10 nM

SMILES: CS(=O)(=O)c1ccc2nc(Nc3ccc(O)cc3)c3n[nH]cc3c2c1 [Example 349, 4-((8-(methylsulfonyl)-2H-pyrazolo[3,4-c]quinolin-4-yl)amino)phenol]
- IC50 (SYK kinase): < 10 nM
- IC50 (LRRK2): 10 to 100 nM

SMILES: CC(=O)Nc1cc(Nc2nc3ccc(S(C)(=O)=O)cc3c3c[nH]nc23)ccc1N1CCN(C(C)=O)CC1 [Example 352, N-(2-(4-acetylpiperazin-1-yl)-5-((8-(methylsulfonyl)-2H-pyrazolo[3,4-c]quinolin-4-yl)amino)phenyl)acetamide]
- IC50 (SYK kinase): 10 to 100 nM
- IC50 (LRRK2): 10 to 100 nM

SMILES: CO[C@H]1CCCC[C@H]1n1cc(Nc2nc3ccc(S(C)(=O)=O)cc3c3c[nH]nc23)cn1 [Example 353, N-(1-((1R,2S)-2-methoxycyclohexyl)-1H-pyrazol-4-yl)-8-(methylsulfonyl)-2H-pyrazolo[3,4-c]quinolin-4-amine]
- IC50 (SYK kinase): 100 to 1000 nM
- IC50 (LRRK2): < 10 nM
